From US9561228B2 (Celgene Avilomics Research, Inc., priority 2013, dated 2017) come the findings set out here.

Structures are written as SMILES. Where only a bound is given, the exact number is not on record here.

Common to all, as to type: cell-based
For assay [1], the system named is ERK1/2 phosphorylation of p90RSK in HT29 cells. The experiment in a line: pRSK MSD Assay in HT29 cells. To be noted: Homo sapiens, HT-29, read-out: ERK1/ERK2 PRSK MSD HT29 EC50. In a few lines: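 Phospho-RSK level, read by electrochemiluminescence on RSK-antibody-coated MSD plates with a phospho-RSK/Sulfo-tag detection pair, reports cellular ERK1/2 activity. HT29 cells, kept overnight in 0.1% FBS medium, were exposed to compound for 120 min at 37° C before lysis.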

The subject of assay [2] is ERK1/2 phosphorylation of p90RSK in A375 cells. As to the kind of experiment: Detection of total and phosphor-RSK by MSD ELISA (A375). To be noted: Homo sapiens, A-375, read-out: ERK1/ERK2 PRSK A375 EC50. Here is the method: Detection of Total and Phosphor-RSK by MSD ELISA (A375)
(§1) The protocol below describes an assay to measure the kinase activity of ERK1/2 to phosphorylate a substrate, p90RSK, in the presence or absence of a test compound.
A375 cells were grown in DMEM/10% FBS. Twenty four hours prior to the assay, 50,000 cells per well were plated in a 96 well flat bottom plate. Once cells attached to the plate, the medium was replaced with 100 ul of DMEM/0.1% FBS. Cells were cultured overnight in an incubator at 37° C.
Compound stock solutions of 10 mM in DMSO were prepared. 1000× dilutions were then prepared in DMSO. 1 uL of DMSO solution was then transferred to 1 ml DMEM/0.1% FBS in a deep well plate. Cell plate media was discarded, followed by addition of 100 uL of the compound-containing media. The preparation was incubated at 37° C. for 2 hrs.
Cell lysates were prepared as described below.
pRSK or Total RSK MSD Assay
MSD plates: Blank MSD plates were coated with 30 uL capture antibody (BD 610226) at a final concentration of 1 ug/mL in PBS. Both pRSK and total RSK MSD assays used the same capture antibody at the same concentration. Antibody stock concentration was 250 ug/mL. Once antibody solution was added to the MSD plate, the sides were tapped to be certain it was coated completely (visual inspection). It was then covered and placed at 4° C. overnight on a level surface.
Block MSD Plate: The coating antibody was removed and the plate was washed on a plate washer in MSD wash buffer. The last bit of wash solution was tapped out and 150 uL/well of 3% BSA in MSD wash buffer was added in. The preparation was placed on a shaker at room temperature for at least an hour.
Add samples: Media was removed from compound-treated cells and replaced with 55 uL/well MSD cell lysis buffer containing protease and phosphotase I & II inhibitors. The preparation was incubated on a shaker in a cold room for 30-45 min. The blocked MSD plate was washed a on plate washer, tapping out the last bit of wash solution, followed by addition of 50 uL (of the 55 ul) cell lysate in a well-well transfer. The preparation was covered and incubated on a shaker at room temp for 2 hours. The lysate was removed, washed on a plate washer 3 times, and the last bit of wash buffer was tapped out and replace with 25 uL/well detection antibody (described below).
For pRSK detection, a pRSK antibody stock of 21 ug/mL was prepared as follows: 1 ug/mL pRSK Ser380 antibody (Cell Signaling Technology, Cat. #9335)+1:750 anti-rabbit SulfoTag (Mesoscale Discovery, Cat. # R32AB-1) in 1% BSA in MSD wash buffer.
(§2) For total RSK detection, a total RSK antibody stock of 200 ug/mL was prepared as follows: 1 ug/mL total RSK (Santa Cruz sc-231G) antibody+1:750 anti-goat SulfoTag (from MSD, R32AG-1) in 1% BSA in MSD wash buffer.
The plate was incubated for 1 hr at room temperature on a shaker, followed by three washings. The last bit of wash buffer was tapped out. 150 uL/well 1×MSD Read buffer was added and the plate was then analyzed.

Assay [3] deals with ERK1/2 phosphorylation of p90RSK in HCT116 cells. The experiment in a line: Detection of total and phospho-RSK by MSD ELISA (HCT116). The following applies: Homo sapiens, HCT-116, read-out: ERK1/ERK2 PRSK HCT116 EC50. The protocol:
Detection of Total and Phospho-RSK by MSD ELISA (HCT116)
as §1
HCT116 cells were grown in RPMI/10% FBS. Prior to the assay, 50,000 cells per well were plated in a 96 well flat bottom plate. Cells were cultured overnight in an incubator at 37° C.
Compound stocks were 10 mM in DMSO. A 1000× dilution was made in DMSO. 1 uL of the DMSO solution was transferred to 1 ml RPMI/10% FBS in a deep well plate. Media in the cell plate was discarded, and 100 uL of the compound-containing media was added. The preparation was incubated at 37° C. for 2 hrs.
Preparation of cell lysates are described below.
pRSK or total RSK MSD Assay
MSD plates: Blank MSD plates were coated with 30 uL capture antibody (BD 610226) at a final concentration of 1 ug/mL in PBS. Both pRSK and total RSK MSD assays used the same capture antibody at the same concentration. Antibody stock concentration was 250 ug/mL. Once antibody solution was added to MSD plate, the sides were tapped to be certain it was coated completely (visual inspection). It was then covered and placed at 4° C. overnight on a level surface.
Block MSD Plate: The coating antibody was removed and the plate was washed on a plate washer in MSD wash buffer. The last bit of wash solution was tapped out and 150 uL/well 3% BSA (MSD Blocker A) in MSD wash buffer was added. The preparation was placed on a shaker at room temperature for at least an hour.
Add samples: Media was removed from compound-treated cells and replaced with 55 uL/well MSD cell lysis buffer containing protease and phosphotase I & II inhibitors. The preparations was incubate on a shaker in a cold room for 30-45 min. The blocked MSD plate was washed on a plate washer, and the last bit of wash solution was tapped out. Next was added 50 uL (of the 55 uL) cell lysate in a well-well transfer. The preparation was covered and incubated on shaker at room temp for 2 hours. The lysate was then removed and washed on plate washer 3 times. The last bit of wash buffer was then tapped out and replaced with 25 uL/well detection antibody (described below).
For pRSK detection, a pRSK antibody stock of 21 ug/mL was prepared as follows: 1 ug/mL pRSK Ser380 antibody (Cell Signaling Technology, Cat. #9335)+1:750 anti-rabbit SulfoTag (from MSD, R32AB-1) in 1% BSA in MSD wash buffer.
as §2
The plate was incubated for 1 hr at room temperature on a shaker, followed by three washes. The last bit of wash buffer was tapped out. Next, 150 uL/well 1×MSD Read buffer was added and the plate was analyzed by the MSD reader.
A general note: ELISA stands for enzyme-linked immunosorbent assay.

Consider `C=CC(=O)Nc1cc(C)ccc1Nc1nc(N[C@H]2CCCN(S(=O)(=O)C=C)C2)ncc1C(F)(F)F` [Compound I-277, (S)—N-(5-Methyl-2-((5-(trifluoromethyl)-2-((1-(vinylsulfonyl)piperidin-3-yl)amino)pyrimidin-4-yl)amino)phenyl)acrylamide], for which the EC50 in assay [1], in assay [2] and in assay [3] was greater than 1000 nM each time.
As for `C=CC(=O)Nc1cc(C)ccc1Nc1nc(N[C@@H]2CCCN(S(=O)(=O)C=C)C2)ncc1C(F)(F)F` [Compound I-278, (R)—N-(5-Methyl-2-((5-(trifluoromethyl)-2-((1-(vinylsulfonyl)piperidin-3-yl)amino)pyrimidin-4-yl)amino)phenyl)acrylamide], the EC50 in assay [1], in assay [2] and in assay [3] was greater than 1000 nM in each case.
As to `C=CC(=O)Nc1cc(Cl)ccc1Nc1nc(Nc2cc(OC)ncc2C)ncc1C(F)(F)F` [Compound I-289, N-(5-Chloro-2-((2-((2-methoxy-5-methylpyridin-4-yl)amino)-5-(trifluoromethyl)pyrimidin-4-yl)amino)phenyl)acrylamide], the EC50 is less than 100 nM in assay [1], less than 100 nM in assay [2] and 101 to 500 nM in assay [3].
`C=CC(=O)Nc1ccccc1Nc1nc(Nc2cc(OC)nc(N3CCN(S(C)(=O)=O)CC3)c2)ncc1C(F)(F)F` [Compound I-290, N-(2-((2-((2-Methoxy-6-(4-(methylsulfonyl)piperazin-1-yl)pyridin-4-yl)amino)-5-(trifluoromethyl)pyrimidin-4-yl)amino)phenyl)acrylamide]: the EC50 in assay [1] is greater than 1000 nM; in assay [2], greater than 1000 nM; in assay [3], 501 to 999 nM.
Turning to `C=CC(=O)Nc1cc(OC)ccc1Nc1nc(Nc2cc(OC)nc(N3CCN(C(C)=O)CC3)c2)ncc1Cl` [Compound I-297, N-(2-((2-((2-(4-acetylpiperazin-1-yl)-6-methoxypyridin-4-yl)amino)-5-chloropyrimidin-4-yl)amino)-5-methoxyphenyl)acrylamide], the EC50 was less than 100 nM in assay [1], greater than 1000 nM in assay [2] and less than 100 nM in assay [3].
Take `C=CC(=O)Nc1ccccc1Nc1nc(Nc2ccnc(NC)c2)ncc1C(F)(F)F` [Compound I-321, N-(2-((2-((2-(methylamino)pyridin-4-yl)amino)-5-(trifluoromethyl)pyrimidin-4-yl)amino)phenyl)acrylamide]: the EC50 in assay [1], in assay [2] and in assay [3] was greater than 1000 nM in each case.
Regarding `C=CC(=O)Nc1cc(C)ccc1Nc1nc(Nc2cc(OC)nc(N3CCC3)c2)ncc1C(F)(F)F` [Compound I-329, N-(2-((2-((2-(azetidin-1-yl)-6-methoxypyridin-4-yl)amino)-5-(trifluoromethyl)pyrimidin-4-yl)amino)-5-methylphenyl)acrylamide], the EC50 is 101 to 500 nM in assay [1], greater than 1000 nM in assay [2] and 101 to 500 nM in assay [3].
For the compound `C=CC(=O)Nc1cc(C)ccc1Nc1nc(Nc2cc(OC)nc(N3CCC(O)CC3)c2)ncc1C(F)(F)F` [Compound I-332, N-(2-((2-((2-(4-hydroxypiperidin-1-yl)-6-methoxypyridin-4-yl)amino)-5-(trifluoromethyl)pyrimidin-4-yl)amino)-5-methylphenyl)acrylamide], the EC50 is less than 100 nM in assay [1], 101 to 500 nM in assay [2] and 101 to 500 nM in assay [3].
For the compound `C=CC(=O)Nc1cc(C)ccc1Nc1nc(Nc2cnnc(OC)c2)ncc1C(F)(F)F` [Compound I-335, N-(2-((2-((6-methoxypyridazin-4-yl)amino)-5-(trifluoromethyl)pyrimidin-4-yl)amino)-5-methylphenyl)acrylamide], the EC50 in assay [1], in assay [2] and in assay [3] was 501 to 999 nM in each case.
For `C#CCOc1cc(C)c(Nc2ncc(C(F)(F)F)c(Nc3ccc(C)cc3NC(=O)C=C)n2)cc1C(N)=O` [Compound I-362, 5-((4-((2-acrylamido-4-methylphenyl)amino)-5-(trifluoromethyl)pyrimidin-2-yl)amino)-4-methyl-2-(prop-2-yn-1-yloxy)benzamide], the EC50 is 501 to 999 nM in assay [1], 501 to 999 nM in assay [2] and greater than 1000 nM in assay [3].
As to `C=CC(=O)Nc1cc(OCC(=O)N2CCN(C(C)=O)CC2)ccc1Nc1nc(Nc2cc(OC)ncc2C)ncc1C(F)(F)F` [Compound I-404, N-(5-(2-(4-acetylpiperazin-1-yl)-2-oxoethoxy)-2-((2-((2-methoxy-5-methylpyridin-4-yl)amino)-5-(trifluoromethyl)pyrimidin-4-yl)amino)phenyl)acrylamide], the EC50 in assay [1], in assay [2] and in assay [3] was 101 to 500 nM throughout.
As for `C=CC(=O)Nc1cc(OCC(=O)N2CCN(S(C)(=O)=O)CC2)ccc1Nc1nc(Nc2cc(OC)ncc2C)ncc1C(F)(F)F` [Compound I-405, N-(2-((2-((2-methoxy-5-methylpyridin-4-yl)amino)-5-(trifluoromethyl)pyrimidin-4-yl)amino)-5-(2-(4-(methylsulfonyl)piperazin-1-yl)-2-oxoethoxy)phenyl)acrylamide], the EC50 in assay [1] was less than 100 nM; in assay [2], 101 to 500 nM; in assay [3], less than 100 nM.
Take `C=CC(=O)Nc1cc(C)ccc1Nc1nc(Nc2cc(OC)ncc2OC)ncc1C(F)(F)F` [Compound I-406, N-(2-((2-((2,5-dimethoxypyridin-4-yl)amino)-5-(trifluoromethyl)pyrimidin-4-yl)amino)-5-methylphenyl)acrylamide]: the EC50 in assay [1], in assay [2] and in assay [3] was 101 to 500 nM each time.
